# Source: patent publication US10073082B2, “Proteasome inhibition assay and methods of use” (UNIVERSITY HEALTH NETWORK, priority 2013, dated 2018)
# Peptide text beside a SMILES is read from it. * marks the point of attachment. Cbz = O=C(OCc1ccccc1)*
# B1: CD40L: IκB degradation agonist (protein, UniProt P29965 113-261, looked up)
# CD40 ligand, soluble form: MQKGDQNPQIAAHVISEASSKTTSVLQWAEKGYYTMSNNLVTLENGKQLTVKRQGLYYIYAQVTFCSNREASSQAPFIASLCLKSPGRFERILLRAANTHSSAKPCGQQSIHLGGVFELQPGASVFVNVTDPSQVSHGTGFTSFGLLKL
# Assays:
# Type in all cases: cell-based, human
# [1] = system: granulocytes; test: IκB degradation agonists in whole blood: IκB degradation and signaling pathway activation in granulocytes; details: Target Cell Population: Granulocytes
# Description: (§1) Whole blood samples from normal human donors were collected. 100 μL aliquots of the whole blood were inserted into the bottom of 12×75 mm tubes. In order to reduce the potential for contamination of the sample with unfixed cells, blood was removed from the side of the tubes with a cotton swab. 1-2 μL of a proteasome effector was added to a first portion of the tubes and these tubes were incubated for 2 hours at 37° C. in a water bath. In this example, the proteasome effector was Bortezomib or MG-132, both proteasome inhibitors. Following pretreatment with the proteasome effector, 2 μL of […] stock solution (100 ng) of an IκB degradation agonist was added to the tubes and the tubes were incubated from 1 minute to 60 minutes at 37° C. in a water bath. In this example, the agonist was lipopolysaccharide (LPS). A second portion of the tubes were treated with the IκB degradation agonist and no proteasome effector. 2 μL of an IκB degradation agonist was added to these tubes and the tubes were incubated from 1 minute to 60 minutes as described above. For control tubes, 2 μL of phosphate buffered saline (PBS) was added to the tubes and the tubes were incubated as described above.
# (§2) Following incubation, the cells were fixed and permeabilized with a PerFix-P® kit (Beckman Coulter, Inc., Brea. Calif.) according to the manufacturer's instructions. The fixed and permeabilized cells were then washed with 2 mL of Wash Buffer (PBS (w/o Ca++/Mg++) with 2% fetal bovine serum (FBS), sterile filtered (0.22 μm filter)) in the tubes and centrifuged at 500×g for 4 minutes. The cell pellet was resuspended in 2 mL of cold (4° C.) Wash Buffer, centrifuged at 500×g for 4 minutes, and the supernatant was aspirated.
# (§3) Following the above wash steps, the fixed and permeabilized cells were resuspended in 100 μL of cold Wash Buffer comprising antibodies to specific intracellular antigens (e.g., signaling targets including P-ERK, P-Akt, P-p38, P-SAPK, P-S6, and antibodies to IκB). The antibodies were labeled with different fluorochromes (e.g. fluorophores) to facilitate their-individual measurement of the intracellular antigens. […] The supernatant was aspirated and the cell pellet was resuspended in 350 μL of Resuspension Buffer (PerFix-P® kit) and analyzed on a flow cytometer (GALLIOS™) using a protocol with defined population gates and series of dual parameter histograms. A CD45-KO vs. SS dual parameter histogram was collected and a gate around the leukocyte population based on the CD45+ fluorescence and SS characteristics was drawn to exclude debris (CD45 negative events). […] The collected flow cytometric data was analyzed using KALUZA™ software.
# [2] = system: peripheral blood lymphocytes; test: IκB degradation agonists in whole blood: IκB degradation and signaling pathway activation in lymphocytes; details: for Pathways Activated: Target Cell Population: Lymphocytes (subpopulation); for Akt activation in lymphocytes / ERK activation in lymphocytes / S6 activation in lymphocytes / degradation of IκB in lymphocytes: agonist alone
# Description: as §1, §2
# (§4) Following the above wash steps, the fixed and permeabilized cells were resuspended in 100 μL of cold Wash Buffer comprising antibodies to specific intracellular antigens (e.g., signaling targets including P-ERK, P-Akt, P-p38, P-SAPK, P-S6, and antibodies to IκB). The antibodies were labeled with different fluorochromes (e.g. fluorophores) to facilitate their-individual measurement of the intracellular antigens. In order to target specific cell populations in the assay, antibodies capable of differentiating cell populations within the blood sample were also included in some of the tubes. For example, anti-CD14 antibodies were included to specifically label monocytes, anti-CD3 antibodies or anti-CD19 antibodies were included to specifically label T or B-cells respectively, and/or anti-CD38/CD138 antibodies were included to specifically label plasma cells. The cells were incubated with the antibodies for 30 minutes at room temperature and then the cells were washed in 2 mL of cold Wash Buffer and centrifuged as described above. The supernatant was aspirated and the cell pellet was resuspended in 350 μL of Resuspension Buffer (PerFix-P® kit) and analyzed on a flow cytometer (GALLIOS™) using a protocol with defined population gates and series of dual parameter histograms. A CD45-KO vs. SS dual parameter histogram was collected and a gate around the leukocyte population based on the CD45+ fluorescence and SS characteristics was drawn to exclude debris (CD45 negative events). A minimum of 2,500 CD14+ events were collected. A stop count region was set from the CD14-PC7 vs. SS histogram gated on monocytes. Dual parameter histograms gated on the appropriate populations were created to measure the populations of interest. The collected flow cytometric data was analyzed using KALUZA™ software.
# (§5) Phosphorylation of signaling pathways activated by TNF-α, including ERK, Akt, and the ribosomal S6 protein, was monitored together with the degradation of IκB in peripheral blood WBCs. Whole blood samples were treated, activated, and processed as described in Example 1 and the degradation of IκB in peripheral blood cells was monitored by flow cytometry as described in Example 1. The IκB degradation agonist used in this example was TNF-α. […]
# [3] = system: peripheral blood monocytes; test: IκB degradation agonists in whole blood: IκB degradation and signaling pathway activation in monocytes; details: for Pathways Activated: Target Cell Population: Monocytes
# Description: as §1, §2, §4, §5
# [4] = system: IκB in peripheral blood monocytes; test: Flow cytometry assay, whole blood pretreated with effector: LPS induced degradation of IκB in monocytes; details: whole blood pretreated with compound, then LPS
# Description: as §1, with “2 μL of an IκB degradation agonist was added to these tubes and the tubes were incubated from 1 minute to 60 minutes as described above. For control tubes, 2 μL of phosphate buffered saline (PBS) was added to the tubes and the tubes were incubated as described above.” left out
# as §3, with “IκB).” for “IκB). The antibodies were labeled with different fluorochromes (e.g. fluorophores) to facilitate their-individual measurement of the intracellular antigens.”
# (§6) Phosphorylation of signaling pathways activated by LPS, including ERK, Akt (activated by PI3 Kinase), and the ribosomal S6 protein (a marker of protein synthesis) were also monitored together with the degradation of IκB. […] The degradation of IκB in cells pretreated with MG-132 or GDC-0941 was monitored by flow cytometry as described in Example 1. […]
# [5] = system: P-S6 (P-Ser235/P-Ser236) in peripheral blood monocytes; test: S6 phosphorylation in LPS activated monocytes from pretreated whole blood
# Description: (§7) Whole blood samples from normal human donors were collected. 100 μL aliquots of the whole blood were inserted into the bottom of 12×75 mm tubes. In order to reduce the potential for contamination of the sample with unfixed cells, blood was removed from the side of the tubes with a cotton swab. 1-2 μL of a proteasome effector was added to a first portion of the tubes and these tubes were incubated for 2 hours at 37° C. in a water bath. In this example, the proteasome effector was Bortezomib or MG-132, both proteasome inhibitors. […]
# as §3, with “IκB).” for “IκB). The antibodies were labeled with different fluorochromes (e.g. fluorophores) to facilitate their-individual measurement of the intracellular antigens.”, “software. […]” for “software.”
# [6] = system: P-ERK (P-Thr202/P-Tyr204) in peripheral blood monocytes; test: ERK phosphorylation in LPS activated monocytes from pretreated whole blood; details: for "early" (first) ERK phosphorylation peak / "late" (second) ERK activation peak: LPS activated monocytes; for "early" (first) ERK phosphorylation peak: 2-4 minutes; for "late" (second) ERK activation peak: about 10 minutes
# Description: as §1, §2
# as §4, with “In order to target specific cell populations in the assay, antibodies capable of differentiating cell populations within the blood sample were also included in some of the tubes.” left out, “A stop count region was set from the CD14-PC7 vs. SS histogram gated on monocytes. Dual parameter histograms gated on the appropriate populations were created to measure the populations of interest.” left out
# as §6
# [7] = system: P-Akt (P-Ser473) in peripheral blood monocytes; test: Akt phosphorylation in LPS activated monocytes from pretreated whole blood
# Description: as §7
# as §3, with “IκB).” for “IκB). The antibodies were labeled with different fluorochromes (e.g. fluorophores) to facilitate their-individual measurement of the intracellular antigens.”, “software. […]” for “software.”
# [8] = system: IκB in peripheral blood lymphocytes; test: Flow cytometry assay, whole blood pretreated with effector: LPS induced degradation of IκB in lymphocytes; details: whole blood pretreated with inhibitor, then LPS
# Description: (§8) The assay generally comprises treating whole blood with an IκB degradation agonist and/or proteasome effector, fixing the blood cells, permeabilizing the fixed bloods cells, treating the fixed and permeabilized cells with an alcohol treatment to unmask intracellular phosphor-epitopes, and then staining the treated cells with antibodies for flow cytometry analysis.
# (§9) Whole blood samples from normal human donors were collected. 100 μL aliquots of the whole blood were inserted into the bottom of 12×75 mm tubes. In order to reduce the potential for contamination of the sample with unfixed cells, blood was removed from the side of the tubes with a cotton swab. […]
# (§10) Following the above wash steps, the fixed and permeabilized cells were resuspended in 100 μL of cold Wash Buffer comprising antibodies to specific intracellular antigens (e.g., signaling targets including P-ERK, P-Akt, P-p38, P-SAPK, P-S6, and antibodies to IκB). […] The supernatant was aspirated and the cell pellet was resuspended in 350 μL of Resuspension Buffer (PerFix-P® kit) and analyzed on a flow cytometer (GALLIOS™) using a protocol with defined population gates and series of dual parameter histograms. A CD45-KO vs. SS dual parameter histogram was collected and a gate around the leukocyte population based on the CD45+ fluorescence and SS characteristics was drawn to exclude debris (CD45 negative events). […]
# [9] = system: IκB in granulocytes; test: Flow cytometry assay, whole blood pretreated with effector: IκB levels in granulocytes after LPS; details: whole blood pretreated with inhibitor, then LPS; 60 minutes time period
# Description: as §8, §9, §10
# [10] = pathway: Tpl-2 > ERK/MAP kinase
# [11] = pathway: P-ERK/MAP kinase (Ras > Raf)
Molecule,Pathways Activated [1],Pathways Activated ([2]; pathway: PI3 kinase > Akt),Akt activation in lymphocytes [2],ERK activation in lymphocytes [2],S6 activation in lymphocytes [2],degradation of IκB in lymphocytes [2],Pathways Activated ([3]; pathway: IκB > NFκB),"Pathways Activated [3, 10]",Akt activation in monocytes ([3]; agonist alone),ERK activation in monocytes ([3]; agonist alone),degradation of IκB in monocytes ([3]; agonist alone),effect on LPS induced degradation of IκB in monocytes [4],"""early"" (first) ERK phosphorylation peak [6]","""late"" (second) ERK activation peak [6]",Akt activation [7],also measured
TNFα,P-p38 MAP kinase,PI3 kinase > Akt,Neither Akt nor S6 was activated,no apparent response,Neither Akt nor S6 was activated,induced degradation of IκB,IκB > NFκB,Tpl-2 > ERK/MAP kinase,Neither Akt nor S6 was activated,activated,induced degradation of IκB,–,–,–,–,Pathways Activated ([2]; pathway: ERK/MAP kinase (Tpl-2)): ERK/MAP kinase (Tpl-2); Pathways Activated ([2]; pathway: IκB > NFκB): IκB > NFκB; time of peak loss of IκB after stimulation ([2]; lymphocytes): 15 min; Pathways Activated ([3]; pathway: PI3 kinase > Akt): PI3 kinase > Akt; S6 activation in monocytes ([3]; agonist alone): Neither Akt nor S6 was activated; time of peak loss of IκB after stimulation ([3]; monocytes): 10 min
CCCCCCCCCCCCCC(=O)O[C@@H]1[C@@H](C)[C@@]2(O)[C@@H](C=C(CO)C[C@]3(O)C(=O)C(C)=C[C@@H]23)[C@@H]2C(C)(C)[C@]12OC(C)=O [PMA],P-ERK/MAP kinase,–,not activated,activation of ERK,–,stimulated the degradation of IκB,–,–,–,activation of ERK,no degradation of IκB,–,–,–,–,"Pathways Activated ([2]; pathway: IκB > NFκB (PKC?)): IκB > NFκB (PKC?); Pathways Activated [2, 11]: P-ERK/MAP kinase (Ras > Raf); Pathways Activated ([2]; pathway: P-S6 (P-ERK)): P-S6 (P-ERK); lymphocytes with both degradation of IκB and activation of ERK ([2]; over the 15 min time course): approximately 50%; Pathways Activated ([3]; pathway: (IκB is not degraded)): (IκB is not degraded); Pathways Activated [3, 11]: P-ERK/MAP kinase (Ras > Raf)"
CS(=O)(=O)N1CCN(Cc2cc3nc(-c4cccc5[nH]ncc45)nc(N4CCOCC4)c3s2)CC1 [GDC-0941],–,–,–,–,–,–,–,–,–,–,–,no effect,inhibited,unchanged,inhibited,activation of ribosomal S6 protein [5]: minimal impact
N#CC(=C(/N)Sc1ccccc1N)/C(C#N)=C(\N)Sc1ccccc1N [U0126],–,–,–,–,–,–,–,–,–,–,–,–,–,–,–,"ERK activation ([6]; LPS stimulated monocytes, single late ERK peak 8-10 minutes, FIG. 19): inhibited"
CC(C)C[C@@H](C=O)NC(=O)[C@H](CC(C)C)NC(=O)[C@H](CC(C)C)NC(=O)OCc1ccccc1 [MG-132] (Cbz-Leu-Leu-Leu-aldehyde),–,–,–,–,–,–,–,–,–,–,–,inhibited degradation of IκB,not the first,inhibited,no effect,"LPS induced degradation of IκB in lymphocytes [8]: No significant degradation; degradation of IκB in granulocytes [9]: No significant degradation; MFI of the S6 phosphorylation response, lower than in the sample treated with only LPS [5]: approximately 50%"
B1,–,PI3 kinase > Akt,not activated,Neither ERK nor S6 were activated,Neither ERK nor S6 were activated,–,IκB > NFκB,Tpl-2 > ERK/MAP kinase,not activated,low level of ERK activation,–,–,–,–,–,"Pathways Activated ([2]; pathway: IκB > NFκB (Tpl-2)): IκB > NFκB (Tpl-2); Pathways Activated [2, 10]: Tpl-2 > ERK/MAP kinase; decrease of the level of IκB ([2]; lymphocytes, between 40 and 45 minutes post treatment): approximately 40%; Pathways Activated ([3]; pathway: P38 MAP kinase): P38 MAP kinase; decrease of the level of IκB ([3]; monocytes, between 6 and 15 minutes post treatment): approximately 60%"
